This is an account of results in US20240139189A1, “N6-ADENOSINE-[…] INHIBITORS IN CANCER TREATMENT” (priority 2021, published 2024).

The target of one data set is METTL3 (Homo sapiens (Human), UniProt Q86U44). Put plainly: TR-FRET biochemical assay (time resolved-Förster resonance energy transfer). As to conditions: for LLE (lipophilic ligand efficiency, pIC50-logP): calculated with DataWarrior; for potency reduction / loss: relative to parent compound. An excerpt: The bonds formed are depicted in red. The IC50 values refer to the biochemical assay based on time resolved-Forster resonance energy transfer (TR-FRET). B) Superimposition of compounds 1 (grey, from X-ray with METTL3, PDB code: 7NHI) and 2 (cyan, drawn in Pymol).
Chain of METTL3 (Q86U44 whole entry, looked up): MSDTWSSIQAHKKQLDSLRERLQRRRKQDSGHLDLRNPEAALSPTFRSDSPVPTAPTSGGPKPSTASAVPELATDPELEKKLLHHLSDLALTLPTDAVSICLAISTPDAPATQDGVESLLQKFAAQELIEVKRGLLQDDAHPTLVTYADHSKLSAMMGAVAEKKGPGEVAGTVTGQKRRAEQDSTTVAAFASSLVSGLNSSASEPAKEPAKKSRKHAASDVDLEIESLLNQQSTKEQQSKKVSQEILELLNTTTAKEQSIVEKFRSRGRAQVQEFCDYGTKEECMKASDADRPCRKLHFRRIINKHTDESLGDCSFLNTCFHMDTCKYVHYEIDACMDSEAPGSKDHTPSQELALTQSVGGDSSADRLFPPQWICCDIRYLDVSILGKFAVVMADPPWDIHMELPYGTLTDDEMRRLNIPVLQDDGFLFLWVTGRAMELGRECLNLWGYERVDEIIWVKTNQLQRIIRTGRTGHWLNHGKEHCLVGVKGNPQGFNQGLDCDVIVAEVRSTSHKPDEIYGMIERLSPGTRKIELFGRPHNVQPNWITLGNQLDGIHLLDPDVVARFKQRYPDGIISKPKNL
Chain of METTL3 (Q9HCE5 whole entry partner, looked up): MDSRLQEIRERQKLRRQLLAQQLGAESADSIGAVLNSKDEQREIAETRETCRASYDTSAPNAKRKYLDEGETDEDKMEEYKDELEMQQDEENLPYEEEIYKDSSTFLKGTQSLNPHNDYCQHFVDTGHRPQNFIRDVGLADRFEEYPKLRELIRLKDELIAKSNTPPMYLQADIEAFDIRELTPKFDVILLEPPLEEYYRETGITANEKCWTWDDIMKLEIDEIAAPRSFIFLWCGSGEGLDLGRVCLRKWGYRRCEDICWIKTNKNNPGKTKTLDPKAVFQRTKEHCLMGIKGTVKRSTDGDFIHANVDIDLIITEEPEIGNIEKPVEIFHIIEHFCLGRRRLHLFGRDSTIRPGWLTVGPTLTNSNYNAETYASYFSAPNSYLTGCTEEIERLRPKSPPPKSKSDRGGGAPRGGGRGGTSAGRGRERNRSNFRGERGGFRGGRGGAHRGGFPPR

For data set [1] the following is noted: Rat liver microsomes. For orientation: Microsomes from liver hold many membrane-bound enzymes, among them those of drug oxidation.
The nature of a further data set: in vitro. As to conditions: rat, microsomes.
The target in a further data set is METTL3/METTL14 (Homo sapiens (Human), UniProt Q86U44). As to the kind of experiment: Protein thermal shift assay, METTL3/METTL14. As to conditions: read-out: ΔTm.
Chain of METTL3/METTL14 (Q86U44 whole entry, looked up): as the sequence (Q86U44 whole entry, looked up) above
Chain of METTL3/METTL14 (Q9HCE5 whole entry partner, looked up): as the sequence (Q9HCE5 whole entry partner, looked up) above
Setting [2] is: IC50 data for N6-adenosine-methyltransferase.

Each structure is given as a SMILES string. pIC50: −log10 of the molar value. Converted amounts (≈) assume the structure as drawn.

The term pIC50 denotes −log10 of the IC50, conventionally taken in molar units. What is called half-life is the time in which the quantity being followed falls by half. Read a high half-life as slow decline. Broadly, the solubility (kinetic) is the concentration staying in solution when a stock, usually in DMSO, is diluted into the medium. In general, ΔTm refers to the change in melting temperature against a reference sample.

In the case of `CNc1cc(N2CCCC(O)(CNC(=O)c3ccc(CN4CCC(C)(C)CC4)cc3)C2)ncn1` (stereo not shown) [Compound 1], at METTL3, the “LE (ligand efficiency)” value is 0.21 kcal.mol^-1.heavy atom count^-1 and the “LLE (lipophilic ligand efficiency, pIC50-logP)” value is on record as 2.5. Besides, the pIC50 against METTL3 (TR-FRET assay) was 5.09.

For `CC1(C)CCN(Cc2ccc(C(=O)NC3CCN(c4cc(NCc5ccccc5)ncn4)CC3)cn2)CC1` [Compound 6], on METTL3, the “LE (ligand efficiency)” value was 0.20 kcal.mol^-1.heavy atom count^-1 and the “LLE (lipophilic ligand efficiency, pIC50-logP)” value is recorded as 1.7. This compound showed a pIC50 at METTL3 (TR-FRET assay) of 5.44.

As to `CC1(C)CCN(Cc2ccc(N3CCOC4(CCN(c5cc(NCc6ccccc6)ncn5)CC4)C3)cn2)CC1` [Compound 7, N-Benzyl-6-(4-(6-((4,4-dimethylpiperidin-1-yl)methyl)pyridin-3-yl)-1-oxa-4,9-diazaspiro[5.5]undecan-9-yl)pyrimidin-4-amine], the pIC50 against METTL3 (setting [2]) and against METTL3 (TR-FRET assay) was 6.55 throughout.

Turning to `CC1(C)CCN(Cc2ccc(N3CC(=O)NC4(CCN(c5cc(NCc6ccccc6)ncn5)CC4)C3)cn2)CC1` [Compound 8, 9-(6-(Benzylamino)pyrimidin-4-yl)-4-(6-((4,4-dimethylpiperidin-1-yl)methyl)pyridin-3-yl)-1,4,9-triazaspiro[5.5]undecan-2-one], the pIC50 against METTL3 (setting [2]) and at METTL3 (TR-FRET assay) was 7.43 in each case.

`CC1(C)CCN(Cc2ccc(N3CC(=O)NC4(CCN(c5cc(NCc6ccccc6)ncn5)CC4)C3)cc2)CC1` [Compound 9, 9-(6-(Benzylamino)pyrimidin-4-yl)-4-(4-((4,4-dimethylpiperidin-1-yl)methyl)phenyl)-1,4,9-triazaspiro[5.5]undecan-2-one]: the negative logarithm of the IC50 (pIC50) on METTL3 (setting [2]) and against METTL3 (TR-FRET assay) was 7.59 throughout.

On to `CNc1cc(N2CC3(CN(c4ccc(CN5CCC(C)(C)CC5)cc4)CC(=O)N3)C2)ncn1` [Compound 11, 8-(4-((4,4-Dimethylpiperidin-1-yl)methyl)phenyl)-2-(6-(methylamino)pyrimidin-4-yl)-2,5,8-triazaspiro[3.5]nonan-6-one], for which the “RLM t1/2” value in data set [1] stood at 70 min. Further, on METTL3, the “LE (ligand efficiency)” value is on record as 0.26 kcal.mol^-1.heavy atom count^-1; the “LLE (lipophilic ligand efficiency, pIC50-logP)” value is on record as 4.5; the “potency reduction / loss” value is recorded as 5 fold. For the same compound, on METTL3 (setting [2]), the pIC50 is 6.36. For the same compound, on METTL3 (TR-FRET assay), the pIC50 was 6.36. The Kinetic solubility in “Kinetic solubility” was found to be 86 µM.

As to `CNc1cc(N2CCC3(CC2)CN(c2ccc(CN4CCC(C)(C)CC4)cc2)C(=O)N3)ncn1` [Compound 12], on METTL3, the “LE (ligand efficiency)” value is listed as 0.23 kcal.mol^-1.heavy atom count^-1; the “LLE (lipophilic ligand efficiency, pIC50-logP)” value is 2.6; the “potency reduction / loss” value was determined as 20 fold. The negative logarithm of the IC50 (pIC50) at METTL3 (TR-FRET assay) was 5.74.

In the case of `CN(C)c1cc(N2CCC3(CC2)CN(c2ccc(CN4CCC(C)(C)CC4)cc2)CC(=O)N3)ncn1` [Compound 14], at METTL3, the “LE (ligand efficiency)” value is on record as 0.23 kcal.mol^-1.heavy atom count^-1 and the “LLE (lipophilic ligand efficiency, pIC50-logP)” value was 3.2. This compound had a pIC50 at METTL3 (TR-FRET assay) of 6.01.

Take `CC(C)Nc1cc(N2CCC3(CC2)CN(c2ccc(CN4CCC(C)(C)CC4)cc2)CC(=O)N3)ncn1` [Compound 15, 4-(4-((4,4-Dimethylpiperidin-1-yl)methyl)phenyl)-9-(6-(isopropylamino)pyrimidin-4-yl)-1,4,9-triazaspiro[5.5]undecan-2-one]: the “LE (ligand efficiency)” value at METTL3 is on record as 0.24 kcal.mol^-1.heavy atom count^-1. Moreover, the pIC50 at METTL3 (setting [2]) and at METTL3 (TR-FRET assay) was 6.48 in each case. The “LLE (lipophilic ligand efficiency, pIC50-logP)” value at METTL3 is listed as 3.2.

Turning to `CC1(C)CCN(Cc2ccc(N3CC(=O)NC4(CCN(c5cc(NC6CC6)ncn5)CC4)C3)cc2)CC1` [Compound 16, 9-(6-(Cyclopropylamino)pyrimidin-4-yl)-4-(4-((4,4-dimethylpiperidin-1-yl)methyl)phenyl)-1,4,9-triazaspiro[5.5]undecan-2-one], the pIC50 on METTL3 (setting [2]) and at METTL3 (TR-FRET assay) was 7.08 in each case.

As for `CC1(C)CCN(Cc2ccc(N3CC(=O)NC4(CCN(c5ncnc6[nH]ccc56)CC4)C3)cc2)CC1` [Compound 17, 4-(4-((4,4-Dimethylpiperidin-1-yl)methyl)phenyl)-9-(7H-pyrrolo[2,3-d]pyrimidin-4-yl)-1,4,9-triazaspiro[5.5]undecan-2-one], the pIC50 at METTL3 (setting [2]) and at METTL3 (TR-FRET assay) was 7.21 in each case.

As for `CC1(C)CCN(Cc2ccc(N3CC(=O)NC4(CCN(c5ccnc6[nH]ccc56)CC4)C3)cc2)CC1` [Compound 18], on METTL3, the “LE (ligand efficiency)” value is given as 0.20 kcal.mol^-1.heavy atom count^-1; the “LLE (lipophilic ligand efficiency, pIC50-logP)” value was 2.3; the “potency reduction / loss” value was 74 fold. Besides, the pIC50 at METTL3 (TR-FRET assay) was 5.35.

Consider `CC1(C)CCN(Cc2ccc(N3CC(=O)NC4(CCN(c5nc(Cl)nc6[nH]ccc56)CC4)C3)cc2)CC1` [Compound 19, 9-(2-Chloro-7H-pyrrolo[2,3-d]pyrimidin-4-yl)-4-(4-((4,4-dimethylpiperidin-1-yl)methyl)phenyl)-1,4,9-triazaspiro[5.5]undecan-2-one], for which the “RLM t1/2” value in data set [1] is recorded as 32 min. Further, the half-life in the data set “in vitro” came out at 32 min. Moreover, at METTL3, the “LE (ligand efficiency)” value is reported as 0.28 kcal.mol^-1.heavy atom count^-1 and the “LLE (lipophilic ligand efficiency, pIC50-logP)” value is reported as 3.9. Moreover, the negative logarithm of the IC50 (pIC50) against METTL3 (setting [2]) is 7.62. In addition, the pIC50 against METTL3 (TR-FRET assay) is 7.62. The compound further came in with a Kinetic solubility in the data set “Kinetic solubility” of 45 µM. Further, the kinetic solubility in “Kinetic solubility” (kinetic from dmso stock) is 45 µM (≈ 23.5 µg/mL).

Take `CNc1cc(N2CCC3(CC2)CN(c2ccc(CN4CCC(C)(C)CC4)cc2F)CC(=O)N3)ncn1` [Compound 20, 4-(4-((4,4-Dimethylpiperidin-1-yl)methyl)-2-fluorophenyl)-9-(6-(methylamino)pyrimidin-4-yl)-1,4,9-triazaspiro[5.5]undecan-2-one]: the negative-log IC50 (pIC50) against METTL3 (setting [2]) and at METTL3 (TR-FRET assay) was 7.42 in each case.

On to `CNc1cc(N2CCC3(CC2)CN(c2ccc(CN4CCC(C)(C)CC4)c(F)c2)CC(=O)N3)ncn1` [Compound 21, 4-(4-((4,4-Dimethylpiperidin-1-yl)methyl)-3-fluorophenyl)-9-(6-(methylamino)pyrimidin-4-yl)-1,4,9-triazaspiro[5.5]undecan-2-one], for which the pIC50 against METTL3 (setting [2]) and against METTL3 (TR-FRET assay) was 7.49 throughout.

On to `CNc1cc(N2CCC3(CC2)CN(c2cc(F)c(CN4CCC(C)(C)CC4)cc2F)CC(=O)N3)ncn1` [Compound 22, 4-(4-((4,4-Dimethylpiperidin-1-yl)methyl)-2,5-difluorophenyl)-9-(6-(methylamino)pyrimidin-4-yl)-1,4,9-triazaspiro[5.5]undecan-2-one], for which the ΔTm at 100 µM at METTL3/METTL14 was determined as 4.7 °C.

Consider `Nc1ncnc2c1ncn2[C@@H]1O[C@H](CSCC[C@H](N)C(=O)O)[C@@H](O)[C@H]1O` [SAH, S-adenosyl-L-homocysteine, reference compound], for which the ΔTm at 100 µM on METTL3/METTL14 was 2.8 °C.
